The source of these data is patent publication EP4737448A1, “SARM1 ENZYME ACTIVITY INHIBITOR AND USE THEREOF” (Artivila (ShenZhen) Innovation Center, Ltd., priority 2023, dated 2025).

What is called IC50 is the concentration that inhibits the measured activity by half. A low value points to greater potency.

The test system of assay [1] is axons of dorsal root ganglia explants. The assay is described as follows: Wallerian degeneration assay of axon in mouse DRG explant culture. The class given is cell-based, C57BL/6 mice. Conditions: 10 µM compound, 2 h pretreatment, 24 h post axonal transection. The protocol: Dorsal root ganglia were dissected from two-month-old male C57BL/6 mice and placed into a 35-mm culture dish containing ice-cold HBSS buffer. Extra tissue surrounding each dorsal ganglion was removed using a scalpel, and the ganglia were cut into 2-3 explant pieces. These explants were seeded into wells of a 96-well plate pre-coated with 100 ng/mL Matrigel (Corning), added with 100 µL of DRG medium (Neurobasal medium (Gibco) containing 2% B-27 (Gibco), 1% GlutaMAX (Gibco) and 10 ng/mL NGF (MCE)), and cultured in a 37°C incubator for one week. The medium was half- replaced on the fourth day and the experiments were counted on the eighth day.
Refer to methods reported in literatures in the related art (Gerdts J, Sasaki Y, Vohra B, Marasa J, Milbrandt J. Image-based screening identifies novel roles for IkappaB kinase and glycogen synthase kinase 3 in axonal degeneration. J Biol Chem. 2011 Aug 12;286(32):28011-8) for the definition and measurement principle of the degeneration index of axon. In the present disclosure, the measurement method is detaild below.
0.1 µL of 10 mM compound to be tested was added to 100 µL of DRG medium to prepare a new medium containing 10 µM compound to be tested. The medium in the 96-well plate was removed and replaced with the new medium containing the compound to be tested. Explant pieces of dorsal ganglia were incubated with compounds in a 37°C incubator for 2 h of pre-protection. Following this 2-hour pretreatment, axons were transcted near the explants tissue piece using a glass microelectrode. At 0 h and 24 h post axonal transection, brightfield images of axons in the same region were captured using a microscope (Olympus) with 20× objective. Axonal integrity was assessed using an in-house developed script. The results were categorized based on the degree of protection into: (A) >50% and (B) 20-50%.

The next assay concerns the target T1, SARM1 (Homo sapiens, UniProt Q6SZW1).
T1 construct: the inventor produces full-length SARM1 for NADase activity assays and for screening; His (C); made in house; host or cells: HEK293 cells (transient transfection; digitonin lysate supernatant, not purified further)
T1 sequence (Q6SZW1 28-724): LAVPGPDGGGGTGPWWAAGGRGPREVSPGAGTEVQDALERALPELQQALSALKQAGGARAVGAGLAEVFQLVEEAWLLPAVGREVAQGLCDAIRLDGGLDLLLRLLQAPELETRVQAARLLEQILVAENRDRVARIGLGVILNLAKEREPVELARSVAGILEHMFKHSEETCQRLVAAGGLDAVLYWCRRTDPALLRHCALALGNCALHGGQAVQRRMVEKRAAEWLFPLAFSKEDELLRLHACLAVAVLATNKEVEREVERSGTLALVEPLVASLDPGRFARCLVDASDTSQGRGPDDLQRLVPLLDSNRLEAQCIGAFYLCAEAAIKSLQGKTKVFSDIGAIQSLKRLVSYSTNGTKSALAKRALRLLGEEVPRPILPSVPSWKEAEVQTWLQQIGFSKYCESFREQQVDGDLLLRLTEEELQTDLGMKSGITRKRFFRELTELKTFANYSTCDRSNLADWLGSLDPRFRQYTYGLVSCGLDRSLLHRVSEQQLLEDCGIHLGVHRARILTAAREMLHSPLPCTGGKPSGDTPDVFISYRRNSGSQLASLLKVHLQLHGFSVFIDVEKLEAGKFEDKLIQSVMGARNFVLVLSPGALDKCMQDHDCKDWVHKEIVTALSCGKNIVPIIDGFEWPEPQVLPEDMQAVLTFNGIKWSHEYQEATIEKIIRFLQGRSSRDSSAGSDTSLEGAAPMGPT
Description: In vitro biochemical assay for inhibiting SARM1 enzymatic activity (PC6 fluorescence, NAD substrate, NMN activator). Conditions: 0.05 µg/mL SARM1, 50 µM NAD, 50 µM PC6, 50 µM NMN, 10 min pre-incubation, 30 min at room temperature. On the procedure: Compounds to be tested were stocked at 200 µM or 10 mM (in DMSO), and further diluted to the desired compound concentration for the in vitro SARM1 enzyme assay and inhibitor screening.
The gene sequence encoding SARM1 protein was amplified by PCR and the PCR amplification product was constructed into the pcDNA3.1-HIS-C plasmid. This construction was completed by YouBio Biological Technology (Hunan, China).
HEK293 cells were cultured in DMEM in a 10 cm dish. The next day, cells were transfected with 15 µg of the pcDNA3.1-SARM1-HIS-C expression plasmid.
Cells were harvested 48 hours after the transfection. The SARM1 protein expressed in cells was obtained through cell lysis by digitonin, which was used for in vitro activity assay. The specific process was as follows:
Cells were digested and detached from the dish using trypsin-EDTA, centrifuged at 1000 rpm for 5 minutes, washed once with PBS, then resuspended in PBS containing 100 µM digitonin at 0.6 mL PBS for the cells in 10 cm dish and lysed for 5 min. The cells were added with trypan blue and observed under a microscope. More than 90% of the cells were confirmed to be lysed. The cells were centrifuged at 5000 rpm for 10 min, and the supernatant containing SARM1 protein was collected.
The compound was added into a solution of 50 mM Tris-HCl (pH 7.5) containing 0.05 µg/mL SARM1 to achieve a concentration of 200 µM, and then serially diluted 6 times, where each dilution was carried out by taking half of the previous solution and adding an equal volume of 50 mM Tris-HCl (pH 7.5) containing 0.05 µg/mL SARM1, yielding a set of final concentrations of the compound of either 200, 100, 50, 25, 12.5, 6.25 and 3.125 µM, or 200, 50, 12.5, 3.125, 0.78, 0.195 and 0.049 µM. No inhibitor was added in the control group. All mixtures were incubated at room temperature for 10 min.
Subsequently, 50 µM NAD, 50 µM PC6 as substrate and 50 µM NMN as activator were added to the SARM1 protein incubated with the inhibitor and reacted for 30 min at room temperature. Wherein, the aforementioned concentrations of each component represent their respective final concentrations in the reaction system
During the reaction, the fluorescence spectrum dynamics of PC6 was detected by a microplate reader, with excitation and emission wavelengths set at 390 nm and 520 nm, respectively. The activity of the protein was expressed as the reaction rate and half maximal inhibitory concentration was calculated. The higher the reaction rate, the stronger the protein activity, and the lower the inhibitory efficiency of the compound.
Dose-response curves for inhibition of SARM1 enzymatic activity for NAD by the compounds were plotted using the above method.

In the case of `O=C1C(Cc2ccc(Cl)nc2)CCN1c1ccc(-c2ccncc2)nn1` (stereo not drawn) [Compound 64], the “Degree of protection against axonal Wallerian Degeneration” value (“Degree of protection” for short) in assay [1] was “A ((A) >50%)”. This compound displayed an IC50 on SARM1 below 1000 nM.

With `O=C1C(Cc2ccc(Cl)cc2)CCN1c1ccc(-c2ccncc2)cc1` (stereo not drawn) [Compound 1, 3-(4-chlorobenzyl)-1-(4-(pyridin-4-yl)phenyl)pyrrolidin-2-one], the “Degree of protection” value in assay [1] is given as “A ((A) >50%)”. Besides, the IC50 against SARM1 was below 1000 nM.

As for `O=C1C(Cc2ccccc2)CCN1c1ccc(-c2ccncc2)nn1` (stereo not drawn) [Compound 65], the “Degree of protection” value in assay [1] is “B ((B) 20-50%)”. For the same compound, at SARM1, the half-maximal inhibitory concentration (IC50) was below 1000 nM.

Consider `O=C1C(Cc2ccc(F)c(F)c2)CCN1c1ccc(-c2ccncc2)nn1` (stereo not drawn) [Compound 67], for which, in assay [1], the “Degree of protection” value is recorded as “A ((A) >50%)”. Moreover, at SARM1, the IC50 was below 1000 nM.

Consider `O=C1C(Cc2cc(F)c(F)c(F)c2)CCN1c1ccc(-c2ccncc2)nn1` (stereo not drawn) [Compound 71], for which the “Degree of protection” value in assay [1] was “A ((A) >50%)”. The compound further came in with an IC50 on SARM1 below 1000 nM.

Turning to `[2H]C1(Cc2ccc(F)c(F)c2)CCN(c2ccc(-c3ccncc3)cc2)C1=O` (stereo not drawn) [Compound 83, 3-(3,4-difluorobenzyl)-1-(4-(pyridin-4-yl)phenyl)-3-deutero-pyrrolidin-2-one], the “Degree of protection” value in assay [1] is “A ((A) >50%)”. For the same compound, the IC50 at SARM1 was below 1000 nM.

On to `O=C1C(Cc2ccc(Cl)cc2)CCN1c1cnc(-c2ccncc2)cn1` (stereo not drawn) [Compound 20, 3-(4-chlorobenzyl)-1-(5-(pyridin-4-yl)pyrazin-2-yl)pyrrolidin-2-one], for which the “Degree of protection” value in assay [1] is “B ((B) 20-50%)”. This compound also registered an IC50 on SARM1 below 1000 nM.

Turning to `O=C1C(Cc2ccc(Cl)s2)CCN1c1ccc(-c2ccncc2)cc1` (stereo not drawn) [Compound 29, 3-((5-chlorothiophen-2-yl)methyl)-1-(4-(pyridin-4-yl)phenyl)pyrrolidin-2-one], the “Degree of protection” value in assay [1] was “A ((A) >50%)”. Besides, the 50% inhibitory concentration (IC50) against SARM1 is below 1000 nM.

For the compound `[2H]C(c1ccc(Cl)cc1)C1([2H])CCN(c2ccc(-c3ccncc3)cc2)C1=O` (stereo not drawn) [Compound 80, 3-((4-chlorophenyl)methyl-deutero)-1-(4-(pyridin-4-yl)phenyl)-3-deutero-pyrrolidin-2-one], in assay [1], the “Degree of protection” value is reported as “B ((B) 20-50%)”. The compound further had an IC50 at SARM1 of 1000 to 10000 nM.

For `O=C1C(Cc2ccc(Cl)nc2)CCN1c1ccc(-c2ccncc2)cc1` (stereo not drawn) [Compound 25, 3-((6-chloropyridin-3-yl)methyl)-1-(4-(pyridin-4-yl)phenyl)pyrrolidin-2-one], the “Degree of protection” value in assay [1] was “A ((A) >50%)”. This compound also yielded an IC50 at SARM1 of 1000 to 10000 nM.

Turning to `O=C1C(Cc2cc(F)c(F)c(F)c2)CCN1c1ccc(-c2ccncc2)cc1` (stereo not drawn) [Compound 72], the “Degree of protection” value in assay [1] is “A ((A) >50%)”. The IC50 at SARM1 was below 1000 nM.

Consider `O=C1C(Cc2ccc(F)cc2)CCN1c1ccc(-c2ccncc2)nn1` (stereo not drawn) [Compound 55, 3-(4-fluorobenzyl)-1-(6-(pyridin-4-yl)pyridazin-3-yl)pyrrolidin-2-one], for which the “Degree of protection” value in assay [1] is “B ((B) 20-50%)”. The compound also returned an IC50 at SARM1 below 1000 nM.

In the case of `O=C1[C@H](Cc2ccc(F)c(F)c2)CCN1c1ccc(-c2ccncc2)cc1` (single isomer, unassigned) [Compound 81], the “Degree of protection” value in assay [1] is listed as “A ((A) >50%)”. On SARM1, this compound registered a concentration for half-maximal inhibition (IC50) below 1000 nM.

In the case of `O=C1[C@H](Cc2ccc(F)c(F)c2)CCN1c1ccc(-c2ccncc2)cc1` (single isomer, unassigned) [Compound 82], the “Degree of protection” value in assay [1] is recorded as “A ((A) >50%)”. On SARM1, this compound yielded an IC50 below 1000 nM.

As to `Cc1ccc(CC2CCN(c3ccc(-c4ccncc4)cc3)C2=O)cc1` (stereo not drawn) [Compound 17, 3-(4-methylbenzyl)-1-(4-(pyridin-4-yl)phenyl)pyrrolidin-2-one], the “Degree of protection” value in assay [1] was “A ((A) >50%)”. On SARM1, this compound registered a half-maximal inhibitory concentration (IC50) of 1000 to 10000 nM.

Consider `O=C1C(Cc2ccc(F)cc2F)CCN1c1ccc(-c2ccncc2)cc1` (stereo not drawn) [Compound 41, 3-(2,4-difluorobenzyl)-1-(4-(pyridin-4-yl)phenyl)pyrrolidin-2-one], for which, in assay [1], the “Degree of protection” value is “B ((B) 20-50%)”. At SARM1, the IC50 fell in the range of 1000 to 10000 nM.

Turning to `O=C1C(Cc2ccc(F)cc2)CCN1c1ccc(-c2ccncc2)cc1` (stereo not drawn) [Compound 15, 3-(4-fluorobenzyl)-1-(4-(pyridin-4-yl)phenyl)pyrrolidin-2-one], the “Degree of protection” value in assay [1] is “B ((B) 20-50%)”. Besides, the IC50 on SARM1 was 1000 to 10000 nM.

Take `O=C1N(Cc2ccc(Cl)cc2)CCN1c1ccc(-c2ccncc2)nn1` [Compound 59, 1-(4-chlorobenzyl)-3-(6-(pyridin-4-yl)pyridazin-3-yl)imidazolidin-2-one]: the “Degree of protection” value in assay [1] was “B ((B) 20-50%)”. The half-maximal inhibitory concentration (IC50) on SARM1 was below 1000 nM.
